In US20090076067A1, “PHARMACEUTICAL COMPOSITION COMPRISING AZARHODACYANINE COMPOUND AS ACTIVE INGREDIENT” (priority 2005, published 2009):

Experiments:
[1] = test system: Plasmodium Falciparum k1 strain; experiment: Chloroquine-resistant tropical malaria protozoa proliferation inhibition screening test; type: cell-based; settings: for Selective toxicity: EC50 rat L6 cells / EC50 Chloroquine-resistant malaria protozoa; for EC50: Plasmodium falciparum, chloroquine-resistant K1 strain, 3H-hypoxanthine uptake, read-out: EC50 P. falciparum K1
Method: In this experiment, Plasmodium Falciparum k1 strain protozoa were used. The medium used in the experiment was filter-sterilized RPMI-1640 medium. To the medium human serum was added to achieve 5% concentration. The protozoa was cultured under condition of O2 concentration 3%, CO2 concentration 4%, N2 concentration 93%, and temperature 37° C.
The cultured malaria infected red blood cells were collected by centrifugation, diluted with non-infected red blood cells, to achieve initial infection rate 0.15%. The hematocrit was 2.5%.
To each well in a 96-well culture plate, 200 μL malaria infected culture was added, and either test solution containing test compound at predefined concentration or DMSO having no test compound was added. Each test solution was prepared in duplicate. After 48 hours culture under 37° C., hypoxanthine labeled with radioactive tritium (^3H) of 0.5 μCi was added to each well. After culturing under same condition for 24 hours, the product was collected on a glass fiber filter and washed. The intensity of radiation was measured by Beta plate liquid scintillation counter (Wallac Inc.), to determine malaria protozoa infection rate in test compound samples and control samples.
Using the malaria protozoa infection rate, the proliferation inhibition rate was calculated according to the following equation to determine 50% proliferation inhibition concentration (EC50).
(§1) Proliferation inhibition rate(%)={1−(b−a)/(c−a)}×100
(§2) a: initial infection rate b: infection rate of test compound solution c: infection rate of the control

[2] = Rat L6 cell proliferation inhibition test; type: cell-based; settings: L6 cells (rat skeletal myoblasts), Table 1, Alamar Blue, read-out: EC50 cytotoxicity L6
Method: Rat-derived L6 cells (rat skeletal myoblast cell) were used for this test. […] The sample was cultured under CO2 concentration 5% and temperature 37° C. Either the composition of the invention or control was dissolved into DMSO, to prepare test solutions having predefined concentration.
The samples were precultured until logarithmic growth phase was reached. Then the culture was transferred to each well in a 96-well culture plate, and either test solution containing test compound at predefined concentration or DSMO without compound was added. The test solution was duplicated.
The plate was cultured in an incubator for 72 hours, to examine proliferation inhibition activity. The activity was examined as follows. Alamar Blue water solution 10 μL was added to each well, and culture was continued for 2 hours. Next, the culture plate was mounted on a fluorescence microplate reader (Spectramax Gemeni XS; Molecular Devices Corporation, U.S.), and irradiated with excitation wavelength 536 nm to determine fluorescence at 588 nm. The survival rate of L6 cells in the test solution sample and control sample was calculated.
Proliferation inhibition rate(%)={(C−A)/(B−A)}×100
A: Initial cell count B: Cell count in control after 3 days C: Cell count in test solution after 3 days

[3] = test system: Trypanosoma brucei rhodensiense (STIB 900 strain); experiment: African trypanosoma protozoa proliferation inhibition screening test; type: cell-based; settings: for Selective toxicity: EC50 rat L6 cells / EC50 African trypanosoma protozoa; for EC50: Trypanosoma brucei, STIB900, STIB 900 bloodstream form, 72 hours, Alamar blue, read-out: EC50 Trypanosoma brucei rhod.
Method: In this experiment, bloodstream form trypomastigote of Trypanosoma brucei rhodensiense (STIB 900 strain) was used. The medium used in the experiment was prepared as follows: to filter-sterilized MEM medium, 25 mM N-2-hydroxyethylpiperazine-2-ethane sulfonate (HEPES), 1 g/L glucose, 1% MEM nonessential amino acid, 0.2 mM 2-mercaptoethanol, 2 mM pyruvic calcium salt, 0.1 mM hypoxanthine, and 15% heat-treated horse serum were added. The protozoa was cultured under atmosphere of CO2 concentration 5% and temperature 37° C.
Either the compound of the invention or a positive control (melarsoprol) was dissolved into dimethylsulfoxide (DMSO) to prepare test solution having predefined concentration. To each well in a 96-well culture plate, medium containing 8×10^3 protozoa, and either test solution containing the test compound at predefined concentration or DMSO without compound was added. Then medium was added to achieve 100 μL. The test solution was duplicated.
The culture plate was cultured in an incubator for 72 hours, and the proliferation inhibition activity was examined. The activity was determined as follows. To each well, 10 μL Alamar blue water solution was added, then the plate was again cultured for 2 hours. Then the culture plate was mounted on a fluorescence microplate reader (Spectramax Gemeni XS; Molecular Devices Corporation, U.S.), and irradiated with 536 nm excitation wavelength to determine fluorescence at 588 nm. The trypanosoma infection rate of the sample containing the test composition and that of the control sample was calculated.
(§3) Using the protozoa infection rate thus obtained, the proliferation inhibition rate was calculated according to the following equation to determine 50% proliferation inhibition concentration (EC50).
as §1
(§4) a: initial infection rate b: infection rate of the test compound solution c: infection rate of the control

[4] = test system: Trypanosoma cruzi (Tulahuen C2C4 strain); experiment: American trypanosoma protozoa proliferation inhibition screening test; type: cell-based; settings: for Selective toxicity: EC50 rat L6 cells / EC50 American trypanosoma protozoa; for EC50: Trypanosoma cruzi, Tulahuen C2C4 strain in rat L6 cells, 96 hours, CPRG/Nonidet, read-out: EC50 Trypanosoma cruzi
Method: In this experiment, amastigote and trypomastigote of Trypanosoma cruzi (Tulahuen C2C4 strain) infected to rat L6 cells were used. The medium used in the experiment was prepared as follows: to RPMI 1640 medium containing L6 cells, L-glutamine (200 mM) and fetal bovine serum was added to achieve concentration of 1% and 10%, respectively. The culture was conducted under CO2 concentration 5% and temperature 37° C.
Either the compound of the invention or a positive control (benznidazole) was dissolved into DMSO to prepare test solution having predefined concentration. To each well in a 96-well culture plate, medium containing 5×10^3 protozoa was added and precultured for 48 hours. After replacing the medium, either the test solution containing compound of the invention in predefined concentration or DMSO without compound was added. The test solution was duplicated.
The plate was cultured in an incubator for 96 hours, and the proliferation inhibition activity was examined. The activity was determined as follows. To each well, 50 μL CPRG/Nonidet was added, then left for 2 to 6 hours. Then the culture plate was mounted on an absorption microplate reader to determine absorption at 540 nm. The trypanosoma infection rate of the sample containing the test compound and that of the control sample was calculated.
as §3, §1, §4

[5] = test system: Leishmania donovani (MHOM/ET/67/L82 strain); experiment: Leishmania protozoa proliferation inhibition screening test; type: cell-based
Method: In this experiment, Leishmania donovani (MHOM/ET/67/L82 strain) was used. The protozoa were successively cultured in Syrian Golden hamsters to obtain amastigote. The medium used in the experiment was SM medium having heat-treated fetal bovine serum 10% added, and pH prepared to 5.4. The culture was conducted under CO2 concentration 5% and temperature 37° C.
Either the compound of the invention or a positive control (miltefosine) was dissolved into DMSO to prepare test solution having predefined concentration. To each well of a 96-well culture plate, medium containing predetermined number of protozoa was added and the culture was pre-treated. The concentration of amastigote was determined by CASY cell analyze system (Scharfe GMBH Co., Germany). Subsequently, either test solution containing compound of the invention in predefined concentration or DMSO without compound was added. The test solution was duplicated.
The plate was cultured in an incubator for 72 hours, and the proliferation inhibition activity was examined. The activity was determined as follows. To each well, 10 μL Alamar blue aqueous solution was added, then cultured again for 2 hours. Then the culture plate was mounted on a fluorescence microplate reader (Spectramax Gemeni XS; Molecular Devices Corporation, U.S), and irradiated 536 nm excitation wavelength to determine […] at 588 nm. The leishmania infection rate of the sample containing the test compound and that of the control sample was calculated.
as §3, §1, §2

[6] = test system: Plasmodium berghei NK 65 strain; experiment: animal or person; type: in vivo
Excerpt: For a test to evaluate therapeutic effect of the compound, 4-day suppressive test which is commonly used for in vivo test to evaluate activity of anti-malaria compound was used. In this experiment, rodent malaria protozoa (Plasmodium berghei NK 65 strain) were used. The infected blood was collected from 5-weeks age (SPF) ICR strain male mouse which were infected intraperitoneally and successively cultured. From the caudal vein of the infected mouse, blood was collected to calculate infection rate. After confirming that infection rate was adequately elevated (10% to 20% infection), the malaria infected blood was collected from the heart of the mouse. The infection rate and count of the red blood cells (cells/mL) were calculated. The infected red blood cell was diluted with PBS buffer to achieve […] protozoa per 0.2 mL dose. The infected cells were injected to the caudal vein of uninfected mouse (ICR strain, male, 5-weeks age) to cause infection. Five mice were made into one group, and the test compound was administered in predefined concentration. From 2 hours after infection, the compound was administered every 24 hours for straight 4 days.
The compound of the invention to be used in this test was dissolved in saline (Otsuka Pharmaceutical Co., Ltd.) to obtain test solution of predefined concentration. When the compound was not dissolved in saline, it was dissolved in SSV (saline containing 0.5% sodium=carboxymethyl cellulose, 0.5% benzyl alcohol, 0.4% Tween 80) to prepare test solution. For the control group (non-treatment group), only saline (Otsuka) was administered. Positive controls S-1 to S-5 were dissolved in saline (Otsuka) or SSV in predetermined concentration to prepare test solution. When the compound was not dissolved in saline, it was dissolved in SSV. After measuring weight of each mouse, the dose for each mouse was calculated to achieve 5.0 to 40 mg concentration for weight1 kg.
Five mice were made into one group, and the test compound was administered intraperitoneally at predefined concentration. From 2 hours after infection, the compound was administered every 24 hours for straight 4 days. Subsequent to the 24 hours after last treatment, blood was collected from the tail of the mouse to prepare thin layer smear in order to count malaria protozoa infection in the treatment group and the control group under microscope. The mice showing maximum value and minimum value were excluded from the average calculation (average was calculated for three mice), to determine malaria protozoa infection rate (Parasitemia).
Using malaria protozoa infection rate thus calculated, recovery rate obtained from the test compound (suppression) was determined.
Recovery rate: suppression(%)=(b−a)/b×100 a: Protozoa infection rate in the treatment group b: Protozoa infection rate in the control group Mean survival days: MSD(day)=c−d c: Average days from the initial treatment (date of malaria infection) to the date of death for the treatment group (5 mice) d: Average days from the date of malaria infection to the date of death for the non-treatment (control) group (5 mice) […]
Tables 5 to 7 illustrate the recovery rate (%) and survival days (day) of malaria infected mice treated with intraperitoneal injection of the test compound and the control compound at predefined concentration. The meaning of symbols in the table is as follows.

Question: With `CCN1C(=O)/C(=c2\nc3c(s2)=CC=CN3C)S/C1=N\c1scc[n+]1C.[Cl-]` [Compound A-20] as the compound, how does the Selective toxicity [1] read?
Answer: 2211

Question: What about the EC50 [1] of the same compound?
Answer: 0.011 µg/mL

Question: What about the EC50 at 72 h [2] of the same compound?
Answer: 24.3 µg/mL

Question: What about the Selective toxicity [3] of the same compound?
Answer: 256

Question: What about the EC50 [3] of the same compound?
Answer: 0.095 µg/mL

Question: And the Selective toxicity [4]?
Answer: 32

Question: What about the EC50 [4] of the same compound?
Answer: 0.763 µg/mL

Question: What does the source list for `CCN1C(=O)/C(=c2\nc3c(s2)=CC=CN3C)S/C1=N\c1sc2ccccc2[n+]1C.[Cl-]` [Compound A-21]?
Answer: Selective toxicity [1]: 3005; EC50 [1]: 0.002 µg/mL; EC50 at 72 h [2]: 6.01 µg/mL; Selective toxicity [3]: 207; EC50 [3]: 0.029 µg/mL; Selective toxicity [4]: 41; EC50 [4]: 0.145 µg/mL; Selective toxicity ([5]; EC50 rat L6 cells / EC50 leishmania protozoa): 18; EC50 ([5]; Leishmania donovani, amastigote, 72 hours, Alamar blue, read-out: EC50 Leishmania donovani): 0.343 µg/mL

Question: Which Selective toxicity [1] does the source give for `CCn1c(=O)/c(=C2\C=CC=CN2C)s/c1=C1\S/C(=N\c2sc3cc(Cl)ccc3[n+]2C)N(C(C)C)C1=O` [Compound B-36] here?
Answer: 1165

Question: And the EC50 [1]?
Answer: 0.009 µg/mL

Question: And the EC50 at 72 h [2]?
Answer: 10.5 µg/mL

Question: What about the Selective toxicity [3] of the same compound?
Answer: 85

Question: And the EC50 [3]?
Answer: 0.123 µg/mL

Question: And the inhibition in vivo at 25 mg/kg/day ([6]; Plasmodium berghei, ip, 96 h, read-out: Recovery Rate (suppression))?
Answer: 95.5%

Question: And the “Survival days (mean survival days, treatment group minus control group)” value ([6]; dose 25 mg/kg/d intraperitoneally, 4 days)?
Answer: 1.7 days
